Literature values, collected in US20070225544A1, “APPARATUSES AND TECHNIQUES FOR BIOACTIVE DRUG DELIVERY IN THE PROSTATE GLAND” (priority 2006, published 2007).

Tests used:
[1] = tested on: benign prostatic hypertrophy (BPH); details: in vivo

| Molecule | decrease in urinary symptoms [1] [%] | effective for up to ... in managing BPH [1] | Duration (relative duration of action of injectable corticosteroid agent) | Potency (relative potency of injectable corticosteroid agent) |
| --- | --- | --- | --- | --- |
| botulinum-toxin | 30 | up to 1 year | – | – |
| CC(=O)OCC(=O)[C@@]1(O)CC[C@H]2[C@@H]3CCC4=CC(=O)CC[C@]4(C)[C@H]3[C@@H](O)C[C@@]21C [Hydrocortisone acetate] | – | – | Short | Low |
